Non-standard residues stand in square brackets, D forms with d.
Assays:
[1] = target: IgG Anti-HIV; format: binding
[2] = target: IgG Anti-Ebola; format: binding
[3] = target: IgE Anti-DNP; format: binding, mouse
[4] = target: αVβ3 Integrin (Homo sapiens, UniProt P05106+P06756); conditions: Table 1 adapted from Zhang et al.; not among the SPR-measured affinities; cited from earlier work
[5] = test system: DNA template; experiment: Rolling-circle amplification of a DNA template, DNA gel of polymerization product; format: biochemical; conditions: polymerase bound by two streptavidin molecules; versus native enzyme with exonuclease activity deleted
Experimental: To confirm that the modified polymerase was still active, rolling-circle amplification of a DNA template was carried out with the molecule 35 as bound by two streptavidin molecules.

Sequence of αVβ3 Integrin (P06756 31-889 limits assumed): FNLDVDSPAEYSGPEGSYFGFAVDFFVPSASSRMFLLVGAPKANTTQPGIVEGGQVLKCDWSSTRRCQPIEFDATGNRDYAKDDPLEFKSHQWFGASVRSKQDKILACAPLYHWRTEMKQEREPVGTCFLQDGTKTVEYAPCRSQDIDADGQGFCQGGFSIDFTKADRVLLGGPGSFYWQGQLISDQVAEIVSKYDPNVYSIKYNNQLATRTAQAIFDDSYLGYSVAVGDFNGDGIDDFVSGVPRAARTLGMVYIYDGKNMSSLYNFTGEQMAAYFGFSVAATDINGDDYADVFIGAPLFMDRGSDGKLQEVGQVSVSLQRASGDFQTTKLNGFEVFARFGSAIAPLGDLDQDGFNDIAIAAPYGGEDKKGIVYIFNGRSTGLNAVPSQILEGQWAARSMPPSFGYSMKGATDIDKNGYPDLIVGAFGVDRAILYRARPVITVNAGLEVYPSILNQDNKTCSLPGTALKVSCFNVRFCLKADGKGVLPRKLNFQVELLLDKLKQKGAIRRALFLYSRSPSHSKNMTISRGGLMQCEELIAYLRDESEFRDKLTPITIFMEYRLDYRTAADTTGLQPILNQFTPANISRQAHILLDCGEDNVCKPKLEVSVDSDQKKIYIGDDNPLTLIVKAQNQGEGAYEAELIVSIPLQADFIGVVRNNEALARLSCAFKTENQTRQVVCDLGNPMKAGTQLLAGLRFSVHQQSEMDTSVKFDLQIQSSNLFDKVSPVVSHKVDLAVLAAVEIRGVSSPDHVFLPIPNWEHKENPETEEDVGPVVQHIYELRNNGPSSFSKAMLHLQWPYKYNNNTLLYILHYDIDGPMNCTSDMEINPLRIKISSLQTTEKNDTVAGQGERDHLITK
Sequence of αVβ3 Integrin (P06756 891-1048 partner limits assumed): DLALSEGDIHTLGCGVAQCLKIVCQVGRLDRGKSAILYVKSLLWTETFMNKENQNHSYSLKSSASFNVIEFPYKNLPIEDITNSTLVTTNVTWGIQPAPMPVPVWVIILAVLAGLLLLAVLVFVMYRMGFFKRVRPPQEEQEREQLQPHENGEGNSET
Sequence of αVβ3 Integrin (P05106 27-788): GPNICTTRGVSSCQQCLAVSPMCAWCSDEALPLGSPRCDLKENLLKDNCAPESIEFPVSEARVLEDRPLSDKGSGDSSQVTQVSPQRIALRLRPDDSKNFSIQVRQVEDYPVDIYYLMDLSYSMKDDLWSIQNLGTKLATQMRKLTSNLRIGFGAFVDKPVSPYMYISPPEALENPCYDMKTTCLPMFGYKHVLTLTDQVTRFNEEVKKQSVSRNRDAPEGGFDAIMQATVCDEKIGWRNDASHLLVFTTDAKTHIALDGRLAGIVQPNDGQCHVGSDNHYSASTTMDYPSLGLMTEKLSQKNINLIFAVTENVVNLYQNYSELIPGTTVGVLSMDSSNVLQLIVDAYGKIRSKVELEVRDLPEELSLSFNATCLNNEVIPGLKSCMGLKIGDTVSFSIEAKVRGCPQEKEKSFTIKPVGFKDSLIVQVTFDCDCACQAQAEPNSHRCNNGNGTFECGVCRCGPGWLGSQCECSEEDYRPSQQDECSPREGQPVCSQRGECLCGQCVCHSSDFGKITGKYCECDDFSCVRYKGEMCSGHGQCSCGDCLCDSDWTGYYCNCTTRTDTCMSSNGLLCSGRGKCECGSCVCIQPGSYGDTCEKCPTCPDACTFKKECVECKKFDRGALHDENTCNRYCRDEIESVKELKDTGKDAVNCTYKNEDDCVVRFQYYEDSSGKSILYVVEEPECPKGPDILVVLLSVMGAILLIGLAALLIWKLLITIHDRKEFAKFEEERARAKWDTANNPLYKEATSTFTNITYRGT

For CALDRWEKIRLR, which Kd [1] is on record?
The Kd was 240 nM.

With CHNTPVYKLDISEATQV as the molecule, how does the Kd [2] read?
The Kd was 1400 nM.

For HSCH2CH2-dinitrophenol, which Kd [3] is on record?
The Kd was 65 nM.

With cyclo(RGD[dF]C) [Cyclic RGDfC] as the molecule, how does the Kd [4] read?
Its Kd is roughly 10 nM.

B1: bis-biotinylated polymerase: exonuclease-deleted ϕ29 polymerase with biotinylated Avitags inserted between G111/K112 and E279/D280 (protein)
chain: MKHMPRKMYSCAFATTTKVEDCRVWAYGYMNIEDHSEYKIGNSLDEFMAWVLKVQADLYFHNLKFDGAFIINWLERNGFKWSADGLPNTYNTIISRMGQWYMIDICLGYKGGLNDIFEAQKIEWHEKRKIHTVIYDSLKKLPFPVKKIAKDFKLTVLKGDIDYHKERPVGYKITPEEYAYIKNDIQIIAEALLIQFKQGLDRMTAGSDSLKGFKDIITTKKFKKVFPTLSLGLDKEVRYAYRGGFTWLNDRFKEKEIGEGMVFDVNSLYPAQMYSRLLPYGEPIVFEGKYVWDEGLNDIFEAQKIEWHEDYPLHIQHIRCEFELKEGYIPTIQIKRSRFYKGNEYLKSSGGEIADLWLSNVDLELMKEHYDLYNVEYISGLKFKATTGLFKDFIDKWTYIKTTSEGAIKQLAKLMLNSLYGKFASNPDVTGKVPYLKENGALGFRLGEEETKDPVYTPMGVFITAWARYTTITAAQACYDRIIYCDTDSIHLTGTEIPDVIKDIVDPKKLGYWAHESTFKRAKYLRQKTYIQDIYMKEVDGKLVEGSPDDYTDIKFSVKCAGMTDKIKKEVTFENFKVGFSRKMKPKPVQVPGGVVLVDDTFTIK
For B1, which polymerase activity [5] is on record?
Its polymerase activity is “comparable to that of the native enzyme”.

Source: US12351855B2, “Bioelectronic circuits, systems and methods for preparing and using them” (priority 2019, dated 2025)
